The subject of this data set is Artemia salina. Kind of data set: Toxicity against Artemia salina. The format is organism-based. The conditions noted are these: in vivo.

The structures appear in SMILES notation.

What is called LC50 is the concentration that kills 50% of the test population. Read a low LC50 as a more lethal substance. `C/C1=C\C=C(\C(C)C)[C@@H](O)C[C@]2(C)O[C@H]2CC/C(C)=C/CC1` registered an LC50 of 50 ppm.
With `CC(=O)O[C@H]1/C(C(C)C)=C\C=C(/C)CC/C=C(\C)CC[C@@H]2O[C@]2(C)[C@H]1C(C)=O` the figure was 110 ppm; with `CC(=O)O[C@@H]1/C(C(C)C)=C\C=C(/C)CC/C=C(\C)CC[C@@H]2O[C@]2(C)[C@H]1O` [FLACCIDOXIDE], 180 ppm.

For the origin of these results see ChEMBL document CHEMBL1155631, “Cembrane diterpenes from the southern African soft coral Cladiella kashmani” (J Nat Prod, 2000).
